Common to all, as to assay type: cell-based
The target in test [1] is T1, human muscarinic M2 receptor (Homo sapiens, UniProt P08172).
T1 construct: expressed in transfected cells
T1 sequence (P08172 1-466): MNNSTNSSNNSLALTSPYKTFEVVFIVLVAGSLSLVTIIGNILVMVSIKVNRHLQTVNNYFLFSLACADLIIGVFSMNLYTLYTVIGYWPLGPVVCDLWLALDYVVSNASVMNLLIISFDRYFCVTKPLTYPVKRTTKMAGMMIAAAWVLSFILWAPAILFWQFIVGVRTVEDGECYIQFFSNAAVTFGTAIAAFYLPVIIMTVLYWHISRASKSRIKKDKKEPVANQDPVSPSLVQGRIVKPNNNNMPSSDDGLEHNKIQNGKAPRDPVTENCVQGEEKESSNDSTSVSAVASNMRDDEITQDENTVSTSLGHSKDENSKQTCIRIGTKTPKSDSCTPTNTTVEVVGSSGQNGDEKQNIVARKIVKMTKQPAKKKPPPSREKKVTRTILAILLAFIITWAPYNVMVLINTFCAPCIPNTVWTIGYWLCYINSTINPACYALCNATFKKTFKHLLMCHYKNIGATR
In words: Alphascreen Surefire phospho-ERK1/2 functional assay, CHO cells expressing M2. The settings on record: for Emax: CHO, read-out: % Emax cf. ACh, M2; for EC50: agonist, CHO cells, phospho-ERK1/2, read-out: pEC50 M2 (converted). How it is done:
(§1) ERK1/2 phosphorylation is a downstream consequence of both Gq/11 and Gi/o protein coupled receptor activation, making it highly suitable for the assessment of M1, M3 (Gq/11 coupled) and M2, M4 receptors (Gi/o coupled), rather than using different assay formats for different receptor subtypes. CHO cells stably expressing the human muscarinic M1, M2, M3 or M4 receptor were plated (25K/well) onto 96-well tissue culture plates in MEM-alpha+10% dialysed FBS. Once adhered, cells were serum-starved overnight. Agonist stimulation was performed by the addition of 5 μL agonist to the cells for 5 min (37° C.). Media was removed and 50 μL of lysis buffer added. After 15 min, a 4 μL sample was transferred to 384-well plate and 7 μL of detection mixture added.
A general note: In Alpha technology, singlet oxygen from a donor bead excites a nearby acceptor bead.

In test [2] the target is T2, human muscarinic M3 receptor (Homo sapiens, UniProt P20309).
T2 construct: expressed in transfected cells
In words: Alphascreen Surefire phospho-ERK1/2 functional assay, CHO cells expressing M3. Conditions: for Emax: CHO, read-out: % Emax cf. ACh, M3; for EC50: agonist, CHO cells, phospho-ERK1/2, read-out: pEC50 M3 (converted). How it is done: as §1

Test [3] has as its target T3, human muscarinic M4 receptor (Homo sapiens, UniProt P08173).
T3 construct: expressed in transfected cells
T3 sequence (P08173 1-479): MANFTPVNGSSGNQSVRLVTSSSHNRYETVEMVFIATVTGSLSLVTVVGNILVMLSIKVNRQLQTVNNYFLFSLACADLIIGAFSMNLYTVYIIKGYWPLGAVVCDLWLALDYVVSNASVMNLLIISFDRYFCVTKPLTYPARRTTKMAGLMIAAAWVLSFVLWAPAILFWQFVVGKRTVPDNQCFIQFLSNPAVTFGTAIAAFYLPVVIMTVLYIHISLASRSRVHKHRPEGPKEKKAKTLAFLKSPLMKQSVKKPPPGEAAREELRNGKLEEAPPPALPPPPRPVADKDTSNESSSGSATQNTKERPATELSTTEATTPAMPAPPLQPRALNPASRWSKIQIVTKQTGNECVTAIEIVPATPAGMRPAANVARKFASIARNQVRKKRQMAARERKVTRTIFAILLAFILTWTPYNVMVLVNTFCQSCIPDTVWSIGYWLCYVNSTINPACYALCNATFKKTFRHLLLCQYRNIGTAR
In words: Alphascreen Surefire phospho-ERK1/2 functional assay, CHO cells expressing M4. Conditions: for Emax: CHO, read-out: % Emax cf. ACh, M4; for EC50: agonist, CHO cells, phospho-ERK1/2, read-out: pEC50 M4 (converted). How it is done: as §1

For test [4], the target named is T4, human muscarinic M1 receptor (Homo sapiens, UniProt P11229).
T4 construct: expressed in transfected cells
T4 sequence (P11229 1-460): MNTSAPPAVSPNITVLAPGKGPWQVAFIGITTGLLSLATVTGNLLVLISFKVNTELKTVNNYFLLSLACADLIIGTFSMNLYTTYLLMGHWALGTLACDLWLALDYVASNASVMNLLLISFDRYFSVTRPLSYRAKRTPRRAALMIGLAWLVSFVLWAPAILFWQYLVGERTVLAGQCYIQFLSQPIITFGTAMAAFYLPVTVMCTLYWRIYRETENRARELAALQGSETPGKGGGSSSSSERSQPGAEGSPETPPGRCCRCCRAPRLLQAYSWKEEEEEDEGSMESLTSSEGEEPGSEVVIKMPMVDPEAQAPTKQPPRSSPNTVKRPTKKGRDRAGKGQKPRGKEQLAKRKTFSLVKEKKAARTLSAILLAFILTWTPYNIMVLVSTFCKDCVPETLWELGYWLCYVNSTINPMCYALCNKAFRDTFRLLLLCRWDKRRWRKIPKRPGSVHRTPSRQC
In words: Alphascreen Surefire phospho-ERK1/2 functional assay, CHO cells expressing M1. Conditions: for Emax: CHO, read-out: % Emax cf. ACh, M1; for EC50: agonist, CHO cells, phospho-ERK1/2, read-out: pEC50 M1 (converted). How it is done: as §1

Each structure is given as a SMILES string.

T2 sequence (P20309 whole entry): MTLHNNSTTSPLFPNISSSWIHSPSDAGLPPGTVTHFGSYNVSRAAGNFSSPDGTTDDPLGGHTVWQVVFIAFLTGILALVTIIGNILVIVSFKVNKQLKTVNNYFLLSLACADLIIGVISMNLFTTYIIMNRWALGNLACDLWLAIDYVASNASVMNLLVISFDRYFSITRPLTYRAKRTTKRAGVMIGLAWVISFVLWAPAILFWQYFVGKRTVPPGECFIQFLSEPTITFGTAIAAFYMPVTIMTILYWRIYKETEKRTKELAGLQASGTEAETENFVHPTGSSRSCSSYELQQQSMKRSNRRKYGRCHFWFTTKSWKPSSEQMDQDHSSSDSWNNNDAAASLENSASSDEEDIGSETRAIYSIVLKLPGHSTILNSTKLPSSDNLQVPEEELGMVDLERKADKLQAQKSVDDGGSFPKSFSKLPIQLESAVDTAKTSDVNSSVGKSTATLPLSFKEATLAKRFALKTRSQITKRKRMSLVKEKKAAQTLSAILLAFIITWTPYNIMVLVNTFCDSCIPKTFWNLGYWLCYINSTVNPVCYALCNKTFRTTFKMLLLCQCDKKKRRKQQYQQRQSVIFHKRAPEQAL

Turning to `CCOC(=O)N1CC2(CC(N3CCC(N4CCCC4c4ccon4)CC3)C2)C1` (racemic) [Example 1-5 (racemic), ethyl 6-{4-[2-(1,2-oxazol-3-yl)pyrrolidin-1-yl]piperidin-1-yl}-2-azaspiro[3.3]heptane-2-carboxylate], the Emax (commonly the greatest response seen or fitted, relative to the assay's reference) was 67% in test [1], 10% in test [2], 64% in test [3] and 18% in test [4]. Besides, the EC50 in test [1] is above 20000 nM; in test [2] it was above 20000 nM; in test [3], 39.8 nM; in test [4], above 20000 nM.

For the molecule `COC(=O)N1CC2(CCC(N3CCC(c4nccn4C)CC3)C2)C1` (racemic) [Example 2-1 (racemic)], the Emax in test [1] was determined as 17%; in test [2], 9%; in test [3], 82%; in test [4] it was 42%. Moreover, the EC50 in test [1] was above 20000 nM; in test [2], above 20000 nM; in test [3], 15.8 nM; in test [4] it was 126 nM.

Consider `CCOC(=O)N1CC2(CCC(N3CCC(c4nccn4C)CC3)C2)C1` (racemic) [Example 2-2 (racemic), Ethyl 6-[4-(1-methyl-1H-imidazol-2-yl)piperidin-1-yl]-2-azaspiro[3.4]octane-2-carboxylate], for which the Emax in test [1] is 7%; in test [2], 5%; in test [3] it was 102%; in test [4] it was 7%. Besides, the EC50 in test [1] is above 20000 nM; in test [2], above 20000 nM; in test [3], 31.6 nM; in test [4], 501 nM.

Regarding `CCOC(=O)N1CC2(CCC(N3CCC(n4cccn4)CC3)C2)C1` (racemic) [Example 2-3 (racemic), Ethyl 6-[4-(1H-pyrazol-1-yl)piperidin-1-yl]-2-azaspiro[3.4]octane-2-carboxylate], the Emax in test [1] was found to be 2%; in test [2], 5%; in test [3] it was 94%; in test [4], 105%. Besides, the EC50 in test [1] is above 20000 nM; in test [2], above 20000 nM; in test [3], 1 nM; in test [4], 3.98 nM.

Regarding `CCOC(=O)N1CC2(CCC(N3CCC([C@@H]4CCCN4C(=O)NC)CC3)C2)C1` (mixture of isomers) [Example 2-4 (mixture of isomers), Ethyl 6-{4-[(2S)-1-(methylcarbamoyl)pyrrolidin-2-yl]piperidin-1-yl}-2-azaspiro[3.4]octane-2-carboxylate], the Emax in test [1] is 4%; in test [2] it was 2%; in test [3], 56%; in test [4], 39%. The EC50 is above 20000 nM in test [1], above 20000 nM in test [2], 3.16 nM in test [3] and above 20000 nM in test [4].

As to `CCOC(=O)N1CC2(CCC(N3CCC(N4C(=O)CC[C@@H]4C)CC3)C2)C1` (mixture of isomers) [Example 2-5 (mixture of isomers), ethyl 6-{4-[(2S)-2-methyl-5-oxopyrrolidin-1-yl]piperidin-1-yl}-2-azaspiro[3.4]octane-2-carboxylate], the Emax in test [1] was 6%; in test [2] it was 3%; in test [3], 36%; in test [4], 38%. For the same molecule, the EC50 in test [1] was above 20000 nM; in test [2] it was above 20000 nM; in test [3], 12.6 nM; in test [4], 158 nM.

Consider `CCOC(=O)N1CC2(CCC(N3CCC(N4C(=O)CC[C@@H]4CC)CC3)C2)C1` (mixture of isomers) [Example 2-6 (mixture of isomers), Ethyl 6-{4-[(2S)-2-ethyl-5-oxopyrrolidin-1-yl]piperidin-1-yl}-2-azaspiro[3.4]octane-2-carboxylate], for which the Emax in test [1] amounted to 8%; in test [2], 13%; in test [3], 59%; in test [4] it was 71%. In addition, the EC50 in test [1] is above 20000 nM; in test [2] it was above 20000 nM; in test [3] it was 7.94 nM; in test [4] it was 15.8 nM.

As for `CCOC(=O)N1CC2(CCC(N3CCC(N4C(=O)CC[C@H]4C)CC3)C2)C1` (mixture of isomers) [Example 2-7 (mixture of isomers), Ethyl 6-{4-[(2R)-2-methyl-5-oxopyrrolidin-1-yl]piperidin-1-yl}-2-azaspiro[3.4]octane-2-carboxylate], the Emax came to 9% in test [1], 53% in test [2], 69% in test [3] and 71% in test [4]. The EC50 was above 20000 nM in test [1], above 20000 nM in test [2], 3.98 nM in test [3] and 39.8 nM in test [4].

`CCOC(=O)N1CC2(CCC(N3CCC(N4C(=O)CC[C@H]4CC)CC3)C2)C1` (mixture of isomers) [Example 2-9 (mixture of isomers), Ethyl 6-{4-[(2R)-2-ethyl-5-oxopyrrolidin-1-yl]piperidin-1-yl}-2-azaspiro[3.4]octane-2-carboxylate]: the Emax in test [1] was 11%; in test [2] it was 8%; in test [3], 123%; in test [4], 100%. The EC50 in test [1] is above 20000 nM; in test [2], above 20000 nM; in test [3] it was 3.16 nM; in test [4], 39.8 nM.

With `CCOC(=O)N1CC2(CCC(N3CCC(N4CC(F)(F)C[C@@H]4CO)CC3)C2)C1` (mixture of isomers) [Example 2-10 (mixture of isomers), Ethyl 6-{4-[(2R)-4,4-difluoro-2-(hydroxymethyl)pyrrolidin-1-yl]piperidin-1-yl}-2-azaspiro[3.4]octane-2-carboxylate], in test [3], the Emax was determined as 32% and the EC50 was 6.31 nM. In test [4], the Emax was determined as 6% and the EC50 was above 20000 nM.

Regarding `COC(=O)N1CC2(CC(N3CCC(c4nccn4C)CC3)C2)C1` [Example 1-1, Methyl 6-[4-(1-methyl-1H-imidazol-2-yl)piperidin-1-yl]-2-azaspiro[3.3]heptane-2-carboxylate], the maximal effect (Emax) in test [3] was 73%; in test [4] it was 113%. In addition, the figures for the EC50 in test [3] and in test [4] were 316 nM and 3160 nM, respectively.

`CCOC(=O)N1CC2(CC(N3CCC(c4nccn4C)CC3)C2)C1` [Example 1-2, Ethyl 6-[4-(1-methyl-1H-imidazol-2-yl)piperidin-1-yl]-2-azaspiro[3.3]heptane-2-carboxylate]: in test [3], the Emax was 100% and the EC50 was 1260 nM. For the same molecule, in test [4], the Emax amounted to 100% and the EC50 is 10000 nM.

With `CCOC(=O)N1CC2(CC(N3CCC(N4C(=O)CC[C@@H]4C)CC3)C2)C1` [Example 1-8, Ethyl 6-{4-[(2S)-2-methyl-5-oxopyrrolidin-1-yl]piperidin-1-yl}-2-azaspiro[3.3]heptane-2-carboxylate], in test [3], the Emax is 78% and the EC50 was 200 nM. In test [4], the Emax stood at 67% and the EC50 is 794 nM.

As to `CCOC(=O)N1CC2(CC(N3CCC(N4C(=O)CC[C@H]4C)CC3)C2)C1` [Example 1-9], in test [3], the Emax stood at 117% and the EC50 is 158 nM. For the same molecule, in test [4], the Emax worked out at 101% and the EC50 is 1580 nM.

For the origin of these results see patent US11324738B2, “Muscarinic agonists” (Heptares Therapeutics Limited, priority 2015, dated 2022).
